# Test results: US20140142177A1, “TOPICAL ORGANIC ACID SALT COMPOSITIONS SUITABLE FOR TREATING INFECTIONS” (priority 2009, published 2014)
# System: T. rubrum
# Experiment: Demonstration of synergistic activity, CLSI Reference Method 38-A2, growth at combined dilutions
# Format: cell-based, Trichophyton rubrum
# Design: key to growth of T. rubrum: N=negative growth; P=positive growth
# Details: for concentration at which negative growth was shown, individually: T. rubrum, tested individually
# Procedure: This method is the gold standard used in measuring the antifungal susceptibility of filamentous fungi that cause invasive infections. Fungal colonies are grown on potato glucose agar (PGA). One colony is picked and grown in Sabouraud glucose broth (SGB) at 24° C. for 3 days in the presence of test compound. Microdilution trays are incubated at 24° C., and are read after 5 days of culture. Turbidity in the microdilution wells is scored with the aid of a reading mirror and compared with that of the growth control. A numerical score from 0 to 4 is given to each well using the following scale: 0=optically clear or absence of growth, 1=slight growth (25% of growth control), 2=prominent reduction in growth (50% of growth control), 3=slight reduction in growth (75% of growth control), 4=no reduction in growth.
structure (smiles),measurement,setting,value
"CCC(=O)[O-].CCC(=O)[O-].[Zn+2] [Formulation F9, zinc propionate]",growth of T. rubrum,F9 0.004X alone,P 0.004X
same,growth of T. rubrum,F9 0.007X alone,P 0.007X
same,growth of T. rubrum,F9 0.015X alone,P 0.015X
same,growth of T. rubrum,F9 0.03X alone,N 0.03X
same,growth of T. rubrum,F9 0.06X alone,N 0.06X
same,growth of T. rubrum,F9 0.125X alone,N 0.125X
same,growth of T. rubrum,F9 0.25X alone,N 0.25X
same,"concentration at which negative growth was shown, individually",,0.03 times the initial concentration
"O=C([O-])c1ccccc1.[Na+] [Formulation F11, sodium benzoate]",growth of T. rubrum,F11 0.004X alone,P 0.004X
same,growth of T. rubrum,F11 0.007X alone,P 0.007X
same,growth of T. rubrum,F11 0.015X alone,P 0.015X
same,growth of T. rubrum,F11 0.03X alone,N 0.03X
same,growth of T. rubrum,F11 0.06X alone,N 0.06X
same,growth of T. rubrum,F11 0.125X alone,N 0.125X
same,growth of T. rubrum,F11 0.25X alone,N 0.25X
same,"concentration at which negative growth was shown, individually",,0.03 times the initial concentration
"O=C[O-].[Na+] [Formulation F12, sodium formate]",growth of T. rubrum,F12 0.004X alone,P 0.004X
same,growth of T. rubrum,F12 0.007X alone,P 0.007X
same,growth of T. rubrum,F12 0.015X alone,P 0.015X
same,growth of T. rubrum,F12 0.03X alone,P 0.03X
same,growth of T. rubrum,F12 0.06X alone,N 0.06X
same,growth of T. rubrum,F12 0.125X alone,N 0.125X
same,growth of T. rubrum,F12 0.25X alone,N 0.25X
same,"concentration at which negative growth was shown, individually",,0.06 times the initial concentration
"CC(=O)[O-].[Na+] [Formulation F14, sodium acetate]",growth of T. rubrum,F14 0.004X alone,P 0.004X
same,growth of T. rubrum,F14 0.007X alone,P 0.007X
same,growth of T. rubrum,F14 0.015X alone,P 0.015X
same,growth of T. rubrum,F14 0.03X alone,P 0.03X
same,growth of T. rubrum,F14 0.06X alone,P 0.06X
same,growth of T. rubrum,F14 0.125X alone,N 0.125X
same,growth of T. rubrum,F14 0.25X alone,N 0.25X
same,"concentration at which negative growth was shown, individually",,0.125 times the initial concentration
